From publication PMC6083370, “Influence of OATPs on Hepatic Disposition of Erlotinib Measured With Positron Emission Tomography” (Clinical Pharmacology and Therapeutics, 2017)
Several values for one entry are separate records, joined by “and”; a condition that tells them apart may be missing. Equal values may be shown once. Read-outs that look alike come from different tables or passages of the source. Blank lines part the entries; values can stand above or below the compound they belong to.

Columns and labels:
[1] = molecular target: T1, OATP1B1 (SLCO1B1) (Homo sapiens, UniProt Q9Y6L6); details: erlotinib 1 μM, cyclosporine A 10 μM, rifampicin 100 μM; 5 min
T1 sequence (Q9Y6L6 1-691): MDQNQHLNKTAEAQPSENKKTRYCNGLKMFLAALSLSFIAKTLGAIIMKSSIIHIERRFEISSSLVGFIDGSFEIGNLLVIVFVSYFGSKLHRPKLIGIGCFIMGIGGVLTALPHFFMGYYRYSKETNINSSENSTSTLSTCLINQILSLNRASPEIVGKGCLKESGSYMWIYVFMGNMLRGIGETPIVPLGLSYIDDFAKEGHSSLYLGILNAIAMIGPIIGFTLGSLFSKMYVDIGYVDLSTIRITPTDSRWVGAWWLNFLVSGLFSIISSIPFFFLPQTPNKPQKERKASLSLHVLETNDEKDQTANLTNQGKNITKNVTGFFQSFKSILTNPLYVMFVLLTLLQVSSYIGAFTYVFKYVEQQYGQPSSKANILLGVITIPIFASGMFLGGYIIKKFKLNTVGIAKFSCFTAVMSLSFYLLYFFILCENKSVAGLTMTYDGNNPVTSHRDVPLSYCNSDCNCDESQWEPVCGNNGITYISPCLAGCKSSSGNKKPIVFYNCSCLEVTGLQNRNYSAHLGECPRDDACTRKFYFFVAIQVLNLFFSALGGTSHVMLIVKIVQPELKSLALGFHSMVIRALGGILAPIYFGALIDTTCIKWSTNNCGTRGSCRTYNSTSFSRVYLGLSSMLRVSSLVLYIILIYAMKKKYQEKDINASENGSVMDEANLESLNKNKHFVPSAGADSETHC
Description: (§2) A431 cells transfected with the empty vector were used as a negative control. All cell lines were cultured in Dulbecco's modified eagle medium supplemented with 10% fetal bovine serum, 2 mM L-glutamine, 100 units/mL penicillin and 100 µg/mL streptomycin. […] On the day of the experiment, growth medium was aspired and cells were washed with pre-warmed transport buffer (Hank's balanced salt solution supplemented with 10 mM N-2-hydroxyethylpiperazine-N-2-ethane sulfonic acid). […] Then the drug solutions were removed and cells were washed with pre-warmed transport buffer. […] For time dependency experiments, pre-warmed transport buffer was added and cells were incubated for 30 min. […] In all experiments, cell count was determined on separate 24-well tissue culture plates before or after each experiment. […] Each inhibition experiment was performed 2 times with 3 technical replicates each and radioactivity in cells was corrected for radioactive decay, normalized to 10^6 cells and expressed as percent of vector control (% control). The time dependency experiment was performed once with 3 technical replicates and radioactivity in cells was corrected for radioactive decay and expressed as percent of applied dose per 10^6 cells (%AD/10^6 cells). The concentration dependency experiment was performed once with 3 technical replicates and radioactivity in cells was corrected for radioactive decay. […]

[2] = molecular target: T2, OATP1B3 (SLCO1B3) (Homo sapiens, UniProt Q9NPD5); details: erlotinib 1 μM, cyclosporine A 10 μM, rifampicin 100 μM; 5 min
T2 sequence (Q9NPD5 1-702): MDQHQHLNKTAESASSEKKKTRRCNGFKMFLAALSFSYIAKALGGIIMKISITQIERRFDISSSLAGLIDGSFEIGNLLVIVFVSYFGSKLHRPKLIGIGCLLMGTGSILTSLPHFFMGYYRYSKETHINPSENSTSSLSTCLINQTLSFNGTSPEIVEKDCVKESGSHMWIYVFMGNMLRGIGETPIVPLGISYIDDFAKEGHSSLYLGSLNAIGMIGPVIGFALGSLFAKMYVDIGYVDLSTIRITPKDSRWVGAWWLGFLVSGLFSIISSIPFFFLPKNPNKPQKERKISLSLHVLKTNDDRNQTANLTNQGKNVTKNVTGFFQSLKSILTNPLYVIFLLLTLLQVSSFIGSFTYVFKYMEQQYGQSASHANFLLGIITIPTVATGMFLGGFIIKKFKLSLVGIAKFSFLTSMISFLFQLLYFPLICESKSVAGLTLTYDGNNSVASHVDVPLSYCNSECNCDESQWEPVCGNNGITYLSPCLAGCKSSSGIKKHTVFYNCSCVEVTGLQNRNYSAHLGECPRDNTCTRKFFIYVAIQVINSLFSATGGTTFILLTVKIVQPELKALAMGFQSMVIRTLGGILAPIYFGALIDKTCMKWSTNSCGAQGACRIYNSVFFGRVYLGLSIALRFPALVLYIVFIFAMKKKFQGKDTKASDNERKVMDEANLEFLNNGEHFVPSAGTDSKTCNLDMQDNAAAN
Description: as §2

[3] = tested on: OATP1B3; details: read-out: IC50 for inhibition of OATP1B3; cited from earlier work
[4] = cited from earlier work
[5] = tested on: OATP1B1; details: read-out: IC50 for inhibition of OATP1B1; cited from earlier work
[6] = Tolerability of study medication in healthy volunteers; format: in vivo, human; details: microdose (<10 μg) i.v. and 300 mg oral
Description: (§1) One female and five male healthy volunteers (mean age: 27 ± 6 years, mean weight: 79 ± 7 kg) were enrolled in the study. […] Radioactivity in the upper abdominal region was measured over 90 min by employing a consecutive frame sequence of 1 × 15, 3 × 5, 3 × 10, 2 × 30, 3 × 60, 2 × 150, and 16 × 300 sec. In parallel to PET imaging, serial blood samples were drawn from the radial artery for the first 2.5 min, followed by samples at 3.5, 5, 10, 20, 30, 40, 60, and 80 min after radiotracer injection. For both PET scans, subjects were asked to fast for at least 6 h before radiotracer injection. Approximately 3 h before start of the second PET scan, an oral dose of 300 mg erlotinib (Tarceva, Roche Pharma, Nutley, NJ; two 150‐mg tablets) was administered. Ten blood samples were collected at baseline and hourly for 8 h and at ∼21 h after erlotinib intake. Blood samples were centrifuged to obtain plasma, which was kept at −80°C until analysis of erlotinib concentrations.

[7] = tested on: OATP2B1; details: read-out: IC50 for OATP2B1 inhibition; cited from earlier work
[8] = tested on: P‐glycoprotein (Pgp/ABCB1); parameters: method as in PMID 20304939, PMID 21088257; details: cited from earlier work
[9] = tested on: OATP1B1; details: cited from earlier work
[10] = tested on: organic anion transporter 3 (OAT3/SLC22A8); parameters: method as in PMID 20304939, PMID 21088257; details: cited from earlier work
[11] = tested on: OATP1B3; details: cited from earlier work
[12] = tested on: MRP4; parameters: method as in PMID 21088257; details: cited from earlier work
[13] = tested on: OCT1 (SLC22A1); parameters: method as in PMID 21088257; details: cited from earlier work
[14] = tested on: organic cation transporter 2 (OCT2/SLC22A2); parameters: method as in PMID 20304939, PMID 21088257; details: cited from earlier work
[15] = Plasma pharmacokinetics of unlabeled erlotinib after 300 mg oral dose (HPLC-UV); format: in vivo, human
Description: as §1, with “In parallel to PET imaging, serial blood samples were drawn from the radial artery for the first 2.5 min, followed by samples at 3.5, 5, 10, 20, 30, 40, 60, and 80 min after radiotracer injection.” left out, “Ten blood samples were collected at baseline and hourly for 8 h and at ∼21 h after erlotinib intake.” left out
Aliquots of blood and plasma were measured for radioactivity in a gamma‐counter, which was cross‐calibrated with the PET camera. […] The concentration of unlabeled erlotinib in plasma was determined by high‐performance liquid chromatography with ultraviolet detection (Supplementary Methods). Pharmacokinetic parameters of erlotinib in plasma were determined with the Kinetica 2000 software package, v. 3.0 (InnaPhase).
The concentration of unlabeled erlotinib in plasma was determined by high-performance liquid chromatography (HPLC) using a Dionex UltiMate 3000 system (Dionex Corp., Sunnyvale, USA) with ultraviolet (UV) detection at 331 nm. After the addition of 600 µL ice-cold methanol to 200 µL of plasma, the samples were centrifuged (13,000 g for 5 min) and 80 µL of clear supernatant was injected onto a Hypersil BDS-C18 column (5 µm, 250 x 4.6 mm I.D., Thermo Fisher Scientific, Inc, Waltham, USA), preceded by a Hypersil BDS-C18 pre-column (5 µm, 10 x 4.6 mm I.D.) and kept at 40°C. The mobile phase consisted of a continuous gradient mixed from aqueous ammonium acetate buffer (10 mM, pH = 5.0) (solvent A) and acetonitrile (solvent B) at a flow rate of 1.0 mL/min.

[16] = tested on: OAT2 (SLC22A7); parameters: method as in PMID 21088257; details: cited from earlier work
[17] = tested on: breast cancer resistance protein (BCRP/ABCG2); parameters: method as in PMID 20304939, PMID 21088257; details: cited from earlier work
[18] = molecular target: T3, OATP2B1 (SLCO2B1) (Homo sapiens, UniProt O94956); details: for Michaelis constant (K m) of the saturable component of OATP2B1‐specific uptake: 7.5 min, erlotinib 0.05–2.05 μM, ± standard error; for effect on [^11C]erlotinib uptake in OATP2B1 overexpressing cells: erlotinib 1 μM, cyclosporine A 10 μM, rifampicin 100 μM, 5 min
T3 sequence (O94956 1-709): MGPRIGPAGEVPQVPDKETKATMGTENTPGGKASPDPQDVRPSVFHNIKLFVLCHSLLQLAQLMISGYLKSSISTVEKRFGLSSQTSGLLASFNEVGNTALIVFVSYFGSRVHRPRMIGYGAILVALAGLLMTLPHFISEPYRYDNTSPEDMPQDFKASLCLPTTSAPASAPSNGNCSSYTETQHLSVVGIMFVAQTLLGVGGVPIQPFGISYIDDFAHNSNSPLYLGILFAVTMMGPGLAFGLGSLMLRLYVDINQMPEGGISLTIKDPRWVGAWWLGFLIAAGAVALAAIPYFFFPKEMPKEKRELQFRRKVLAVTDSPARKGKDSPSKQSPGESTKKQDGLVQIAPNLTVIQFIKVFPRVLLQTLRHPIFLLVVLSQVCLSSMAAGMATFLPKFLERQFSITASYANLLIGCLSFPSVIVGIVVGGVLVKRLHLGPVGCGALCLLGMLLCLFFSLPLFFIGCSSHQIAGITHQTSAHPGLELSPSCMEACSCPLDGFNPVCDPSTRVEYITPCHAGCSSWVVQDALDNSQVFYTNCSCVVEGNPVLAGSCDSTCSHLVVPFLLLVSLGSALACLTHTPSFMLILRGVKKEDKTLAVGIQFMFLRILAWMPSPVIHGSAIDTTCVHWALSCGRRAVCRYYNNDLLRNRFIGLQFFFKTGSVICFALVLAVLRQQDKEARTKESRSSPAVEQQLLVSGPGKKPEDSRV
Description: OATP overexpression was confirmed by Western blotting. Functionality of the OATPs was verified by [^3H]estrone-3-sulfate uptake experiments. A431 cells transfected with the empty vector were used as a negative control. All cell lines were cultured in Dulbecco's modified eagle medium supplemented with 10% fetal bovine serum, 2 mM L-glutamine, 100 units/mL penicillin and 100 µg/mL streptomycin. […] On the day of the experiment, growth medium was aspired and cells were washed with pre-warmed transport buffer (Hank's balanced salt solution supplemented with 10 mM N-2-hydroxyethylpiperazine-N-2-ethane sulfonic acid). […] Then the drug solutions were removed and cells were washed with pre-warmed transport buffer. […] For time dependency experiments, pre-warmed transport buffer was added and cells were incubated for 30 min. […] For concentration dependency experiments, pre-warmed transport buffer was added and cells were incubated for 30 min. […] In all experiments, cell count was determined on separate 24-well tissue culture plates before or after each experiment. In all experiments, radiotracer solutions were aspired following incubation and cells were washed twice with ice-cold transport buffer. […] Each inhibition experiment was performed 2 times with 3 technical replicates each and radioactivity in cells was corrected for radioactive decay, normalized to 10^6 cells and expressed as percent of vector control (% control). The time dependency experiment was performed once with 3 technical replicates and radioactivity in cells was corrected for radioactive decay and expressed as percent of applied dose per 10^6 cells (%AD/10^6 cells). The concentration dependency experiment was performed once with 3 technical replicates and radioactivity in cells was corrected for radioactive decay. Kinetic parameters were determined using a previously described method.^2 In brief, cellular radioactivity uptake was converted into units of pmol/min/10^6 cells. OATP2B1-specific uptake of erlotinib was determined by subtracting the uptake into cells transfected with the empty vector from the uptake into cells transfected with OATP2B1. The following equation was used to obtain kinetic parameters:
where v is the uptake velocity of erlotinib (pmol/min/10^6 cells), S is the erlotinib concentration in the transport buffer (µM), Km is the Michaelis constant (µM), Vmax is the maximum uptake velocity (pmol/min/10^6 cells), and Pdif is the non-saturable uptake clearance (µL/min/10^6 cells). Curve fitting was performed by the non-linear regression method with a modified Michaelis-Menten model according to equation 1 using Prism 6.0 software (GraphPad Software).

[19] = parameters: method as in PMID 27036206; details: combination of erlotinib with rosuvastatin, 24 patients; cited from earlier work
[20] = parameters: method as in PMID 23887590; details: following ritonavir pretreatment; cited from earlier work
[21] = tested on: OATP2B1; parameters: method as in PMID 28005438; details: cited from earlier work
[22] = 3 h after oral dosing, individual subjects
[23] = 4 h after oral dosing, individual subjects
[24] = individual subjects, oral 300 mg

SMILES: C#Cc1cccc(Nc2ncnc3cc(OCCOC)c(OCCOC)cc23)c1 [erlotinib]
effect on [^11C]erlotinib uptake in OATP1B1 overexpressing cells [1]: no effect | effect on [^11C]erlotinib uptake in OATP1B3 overexpressing cells [2]: no effect | IC50 [3]: 1190 nM | logP [4]: 4.19 | IC50 [5]: 104000 nM | tolerability, adverse events [6]: well tolerated by all subjects with no occurrence of adverse events | IC50 [7]: 30 nM | substrate of Pgp [8]: substrate | transport by OATP1B1 [9]: not to be transported | substrate of OAT3 [10]: substrate | transport by OATP1B3 [11]: not to be transported | transport by MRP4 [12]: not to be transported | substrate of OCT1 [13]: not a substrate | substrate of OCT2 [14]: substrate | CPET, plasma concentration at time of the PET scan [15, 22]: 3.30 µM and 4.12 µM and 4.73 µM and 4.91 µM and 2.66 µM and 4.61 µM | CPET,unbound [15, 22]: 0.12 µM and 0.20 µM and 0.10, 0.10 µM and 0.28 µM | CPET, plasma concentration at time of the PET scan [15, 23]: 3.33 µM and 4.50 µM and 4.74 µM and 5.63 µM and 2.71 µM and 4.92 µM | CPET,unbound [15, 23]: 0.13 µM and 0.23 µM and 0.10, 0.10 µM and 0.30 µM | Cmax ([15]; both sexes, human, plasma, po, 300 mg, oral 300 mg, mean ± SD, read-out: Maximum plasma concentration (C max), mean): 4.6 ± 1.3 µM | AUC0-∞ [15, 24]: 68.1 µM·h and 94.0 µM·h and 72.0 µM·h and 102.8 µM·h and 36.6 µM·h and 187.8 µM·h | T1/2, terminal elimination half-life [15, 24]: 14.1 h and 12.5 h and 9.2 h and 11.3 h and 5.4 h and 28.7 h | Tmax [15, 24]: 2 h and 6 h and 4 h | Cmax ([15]; individual subjects, oral 300 mg, read-out: Cmax): 3.51 µM and 5.03 µM and 4.74 µM and 6.43 µM and 2.83 µM and 4.92 µM | plasma concentration at the time of the PET scan ([15]; mean of values at 3 h and 4 h after oral intake of 300 mg): 4.2 ± 1.0 µM | unbound plasma concentration at the time of the PET scan ([15]; mean, oral 300 mg): 0.18 µM | time of C max, median ([15]; oral 300 mg): 5 h | time of C max, range ([15]; oral 300 mg): 2 to 6 h | substrate of OAT2 [16]: not a substrate | substrate of BCRP [17]: substrate | Michaelis constant (K m) of the saturable component of OATP2B1‐specific uptake [18]: 0.32 µM | effect on [^11C]erlotinib uptake in OATP2B1 overexpressing cells [18]: significantly decreased

SMILES: C#Cc1cccc(Nc2ncnc3cc(OCCOC)c(OCCO[11CH3])cc23)c1 [[^11C]erlotinib]
Michaelis constant (K m) of the saturable component of OATP2B1‐specific uptake [18]: 0.324 ± 0.182 µM | incubation time at maximum difference in uptake between OATP2B1 cells and the other cells ([18]; <0.1 μM, time dependency experiment): 10 to 15 min

SMILES: CC(C)c1nc(N(C)S(C)(=O)=O)nc(-c2ccc(F)cc2)c1/C=C/[C@@H](O)C[C@@H](O)CC(=O)O [rosuvastatin]
rate of muscle toxicity [19]: 34%

SMILES: Cc1cc(C)c(NC(=O)CN(CC(=O)[O-])CC(=O)[O-])c(C)c1Br.Cc1cc(C)c(NC(=O)CN(CC(=O)[O-])CC(=O)[O-])c(C)c1Br.[99Tc+4] [[^99mTc]mebrofenin]
increase in the efflux clearance from liver to blood [20]: 517% | reduction in CL uptake [20]: 46%

effect on [^11C]erlotinib uptake in OATP2B1 overexpressing cells [18]: significantly decreased
SMILES: CO[C@H]1/C=C/O[C@@]2(C)Oc3c(C)c(O)c4c(O)c(c(/C=N/N5CCN(C)CC5)c(O)c4c3C2=O)NC(=O)/C(C)=C\C=C\[C@H](C)[C@H](O)[C@@H](C)[C@@H](O)[C@@H](C)[C@H](OC(C)=O)[C@@H]1C [rifampicin]

SMILES: COc1cc2ncnc(Nc3ccc(F)c(Cl)c3)c2cc1OCCCN1CCOCC1 [gefitinib]
transport by OATP2B1 [21]: transported
